Patent US5545639A, “Method of inhibiting transformed cells” (The United States of America as represented by the …, priority 1994, dated 1996)

How the values were obtained:
Assay in all cases: Dose response of growth, tumor cell line
Assay type in all cases: cell-based
[1] = system: SK-MEL-2; settings: Homo sapiens, SK-MEL-2, melanoma
Experimental: (§1) Indeed, 70% of the cell lines were shown not only to experience precluded growth, but cell death, when exposed to less then 100 μM of the active ingredient.

[2] = system: SK-MEL-28; settings: Homo sapiens, SK-MEL-28, melanoma
Experimental: as §1

[3] = system: SF-268; settings: Homo sapiens, SF-268, CNS cancer
Experimental: as §1

[4] = system: HCT-15; settings: Homo sapiens, HCT-15, colon cancer
Experimental: as §1

[5] = system: HCT-116; settings: Homo sapiens, HCT-116, colon cancer
Experimental: as §1

[6] = system: SK-OV-3; settings: Homo sapiens, SK-OV-3, ovarian cancer
Experimental: as §1

[7] = system: KM12; settings: Homo sapiens, KM12, colon cancer
Experimental: as §1

[8] = system: K-562; settings: Homo sapiens, K562, K-562, leukemia
Experimental: as §1

[9] = system: IGROVI; settings: Homo sapiens, ovarian cancer
Experimental: as §1

[10] = system: XF 498; settings: Homo sapiens, XF498, XF 498, CNS cancer
Experimental: as §1

[11] = system: SF-539; settings: Homo sapiens, SF-539, CNS cancer
Experimental: as §1

[12] = system: COLO 205; settings: Homo sapiens, COLO 205, colon cancer
Experimental: as §1

[13] = system: RXF-393; settings: Homo sapiens, RXF-393, renal cancer
Experimental: as §1

[14] = system: OVCAR-3; settings: Homo sapiens, OVCAR-3, ovarian cancer
Experimental: as §1

[15] = system: MCF7; settings: Homo sapiens, MCF7, miscellaneous
Experimental: as §1

[16] = system: OVCAR-5; settings: Homo sapiens, OVCAR-5, ovarian cancer
Experimental: as §1

[17] = system: NCI-H23; settings: Homo sapiens, NCI-H23, non-small cell lung cancer
Experimental: as §1

[18] = system: HCC-2998; settings: Homo sapiens, HCC-2998, colon cancer
Experimental: as §1

[19] = system: SNB-78; settings: Homo sapiens, SNB-78, CNS cancer
Experimental: as §1

[20] = system: OVCAR-4; settings: Homo sapiens, OVCAR-4, ovarian cancer
Experimental: as §1

[21] = system: NCI-H522; settings: Homo sapiens, NCI-H522, non-small cell lung cancer
Experimental: as §1

[22] = system: NCI-H322M; settings: Homo sapiens, non-small cell lung cancer
Experimental: as §1

[23] = system: UO-31; settings: Homo sapiens, UO-31, renal cancer
Experimental: as §1

[24] = system: KM20L2; settings: Homo sapiens, KM-20L2, KM20L2, colon cancer
Experimental: as §1

[25] = read-out: 50% Growth (Relative to Control)
[26] = read-out: No Growth (Relative to Control)

Work on `ClCc1ccc2ccc3ccc(CCl)nc3c2n1` [2,9-bis(chloromethyl)-1,10-phenanthroline] yielded an IC50 [1, 25] of 1.77 µM, a CC50 ([1]; read-out: 50% Loss (50% kill)) of 16.6 µM and an IC100 [1, 26] of 4.81 µM. The IC50 [2, 25] was 1.35 µM, the CC50 ([2]; read-out: 50% Loss (50% kill)) was 6.5 µM and the IC100 [2, 26] was 2.97 µM. It also gave an IC50 [3, 25] of 1.79 µM, an IC100 [3, 26] of 3.74 µM and an IC50 [4, 25] of 1.95 µM. For the same compound, the CC50 ([4]; read-out: 50% Loss (50% kill)) was over 100 µM, the IC100 [4, 26] was 6.47 µM and the IC50 [5, 25] was 1.8 µM. The CC50 ([5]; read-out: 50% Loss (50% kill)) was 8.31 µM, the IC100 [5, 26] was 3.87 µM and the IC50 [6, 25] was 8.9 µM. It also gave a CC50 ([6]; read-out: 50% Loss (50% kill)) of over 10 µM, an IC100 [6, 26] of over 10 µM and an IC50 [7, 25] of 0.761 µM. It also gave a CC50 ([7]; read-out: 50% Loss (50% kill)) of 6.43 µM, an IC100 [7, 26] of 2.39 µM and an IC50 [8, 25] of 3.19 µM. It also gave a CC50 ([8]; read-out: 50% Loss (50% kill)) of over 100 µM, an IC100 [8, 26] of over 100 µM and an IC50 [9, 25] of 1.51 µM. For the same compound, the CC50 ([9]; read-out: 50% Loss (50% kill)) was 6.25 µM, the IC100 [9, 26] was 3.07 µM and the IC50 [10, 25] was 1.72 µM. For the same compound, the CC50 ([10]; read-out: 50% Loss (50% kill)) was over 100 µM, the IC100 [10, 26] was 5.63 µM and the IC50 [11, 25] was 2.99 µM. It also gave a CC50 ([11]; read-out: 50% Loss (50% kill)) of 41.8 µM, an IC100 [11, 26] of 11.2 µM and an IC50 [12, 25] of 1.56 µM. For the same compound, the CC50 ([12]; read-out: 50% Loss (50% kill)) was 5.54 µM, the IC100 [12, 26] was 2.94 µM and the IC50 [13, 25] was 1.65 µM. It also gave a CC50 ([13]; read-out: 50% Loss (50% kill)) of 6.03 µM, an IC100 [13, 26] of 3.16 µM and an IC50 [14, 25] of 1.75 µM. For the same compound, the CC50 ([14]; read-out: 50% Loss (50% kill)) was 18.4 µM, the IC100 [14, 26] was 4.93 µM and the IC50 [15, 25] was 0.564 µM. The CC50 ([15]; read-out: 50% Loss (50% kill)) was 8.88 µM, the IC100 [15, 26] was 2.48 µM and the IC50 [16, 25] was 1.87 µM. For the same compound, the CC50 ([16]; read-out: 50% Loss (50% kill)) was 6.63 µM, the IC100 [16, 26] was 3.52 µM and the IC50 [17, 25] was 1.87 µM. For the same compound, the CC50 ([17]; read-out: 50% Loss (50% kill)) was 7.24 µM, the IC100 [17, 26] was 3.68 µM and the IC50 [18, 25] was 1.56 µM. It also gave a CC50 ([18]; read-out: 50% Loss (50% kill)) of 6.18 µM, an IC100 [18, 26] of 3.11 µM and an IC50 [19, 25] of 2.3 µM. The CC50 ([19]; read-out: 50% Loss (50% kill)) was over 100 µM, the IC100 [19, 26] was 6.4 µM and the IC50 [20, 25] was 3.15 µM. The CC50 ([20]; read-out: 50% Loss (50% kill)) was 34.9 µM, the IC100 [20, 26] was 9.37 µM and the IC50 [21, 25] was 1.76 µM. The CC50 ([21]; read-out: 50% Loss (50% kill)) was 6.71 µM, the IC100 [21, 26] was 3.44 µM and the IC50 [22, 25] was 2.84 µM. The CC50 ([22]; read-out: 50% Loss (50% kill)) was 29.2 µM, the IC100 [22, 26] was 8.41 µM and the IC50 [23, 25] was 1.69 µM. For the same compound, the CC50 ([23]; read-out: 50% Loss (50% kill)) was 6.08 µM, the IC100 [23, 26] was 3.21 µM and the IC50 [24, 25] was 2.72 µM. The CC50 ([24]; read-out: 50% Loss (50% kill)) was 28.3 µM and the IC100 [24, 26] was 7.21 µM.
